Measured values as given in ChEMBL document CHEMBL4732026, “Benzimidazole-1,2,3-triazole hybrid molecules: synthesis and study of their interaction with G-quadruplex DNA” (RSC Med Chem, 2021).
Calls of active or inactive are those of the source. The rule behind the calls is not given here.

Assays:
Quadruplex DNA [1] = assay: Binding affinity to Tel Q G-quadruplex DNA (unknown origin) assessed as increase in intensity of positive and negative peaks at 10 to 40 uM by circular dichroism spectra; type: nucleic-acid assay; conditions: dose 10-40 µM
PC-3 [2] = assay: Cytotoxicity against human PC3 cells assessed as reduction in cell viability measured after 72 hrs by MTT assay; type: functional, cell-based; conditions: PC-3, 72 h
PC-3 [3] = assay: Induction of apoptosis in human PC-3 cells assessed as early apoptic cells at 55 uM after 48 hrs by Annexin V based flow cytometric analysis (reference value: 0.40%); type: functional
PC-3 [4] = assay: Induction of cell cycle arrest in human PC3 cells assessed as accumulation at G1 phase at 50 uM after 48 hrs by propidium iodide staining based flow cytometry (reference value: 5%); type: functional
dsDNA [5] = assay: Binding affinity to double strand DNA (unknown origin) assessed as hyperchromicity at 8.5 uM incubated for 5 mins by UV- vis spectrophotometric analysis; type: nucleic-acid assay
PC-3 [6] = assay: Induction of cell cycle arrest in human PC3 cells assessed as accumulation at S phase at 50 uM after 48 hrs by propidium iodide staining based flow cytometry (reference value: 1.8%); type: functional
PC-3 [7] = assay: Induction of cell cycle arrest in human PC3 cells assessed as accumulation at Sub G1 phase at 50 uM after 48 hrs by propidium iodide staining based flow cytometry (reference value: 0.1%); type: functional
PC-3 [8] = assay: Induction of cell cycle arrest in human PC3 cells assessed as accumulation at G1 phase at 55 uM after 48 hrs by propidium iodide staining based flow cytometry (reference value: 5%); type: functional
Quadruplex DNA [9] = assay: Binding affinity to Tel Q G-quadruplex DNA (unknown origin) assessed as increase in viscosity at 15 uM by EtBr/Hoechst 33342 method; type: nucleic-acid assay
Quadruplex DNA [10] = assay: Binding affinity to c-Myc G-quadruplex DNA (unknown origin) assessed as increase in intensity of positive and negative peaks at 10 to 40 uM by circular dichroism spectra; type: nucleic-acid assay; conditions: dose 10-40 µM
Quadruplex DNA [11] = assay: Binding affinity to Tel Q G-quadruplex DNA (unknown origin) assessed as hypsochromic shift at 8.5 uM incubated for 5 mins by UV- vis spectrophotometric analysis; type: nucleic-acid assay
PC-3 [12] = assay: Induction of apoptosis in human PC-3 cells assessed as necrotic cells at 55 uM after 48 hrs by Annexin V based flow cytometric analysis (reference value: 0.79%); type: functional
PC-3 [13] = assay: Induction of apoptosis in human PC-3 cells assessed as early apoptic cells at 50 uM after 48 hrs by Annexin V based flow cytometric analysis (reference value: 0.40%); type: functional
[14] = Induction of apoptosis in CHO-K1 cells assessed as viable cells at 65 uM after 48 hrs by Annexin V based flow cytometric analysis (reference value: 93.71%); type: cell-based, Cricetulus griseus; conditions: chinese hamster, read-out: Activity
Quadruplex DNA [15] = assay: Binding affinity to c-Myc G-quadruplex DNA (unknown origin) assessed as increase in viscosity at 15 uM by EtBr/Hoechst 33342 method; type: nucleic-acid assay
Quadruplex DNA [16] = assay: Binding affinity to c-Myc G-quadruplex DNA (unknown origin) assessed as dissociation constant incubated for 5 mins by UV- vis spectrophotometric analysis; type: nucleic-acid assay
PC-3 [17] = assay: Induction of cell cycle arrest in human PC3 cells assessed as accumulation at G2/M phase at 55 uM after 48 hrs by propidium iodide staining based flow cytometry (reference value: 1.4%); type: functional
dsDNA [18] = assay: Stabilization of double strand DNA (unknown origin) assessed as increase in life time of DNA and compound complex at 8.5 uM incubated for 5 mins by fluorescence lifetime study; type: nucleic-acid assay
CHO-K1 [19] = assay: Induction of apoptosis in CHO-K1 cells assessed as late apoptic cells at 60 uM after 48 hrs by Annexin V based flow cytometric analysis (reference value: 1.01%); type: cell-based, Cricetulus griseus; conditions: chinese hamster, cho-k1, 48 h
Quadruplex DNA [20] = assay: Binding affinity to Tel Q G-quadruplex DNA (unknown origin) assessed as dissociation constant incubated for 5 mins by UV- vis spectrophotometric analysis; type: nucleic-acid assay
CHO-K1 [21] = assay: Induction of apoptosis in CHO-K1 cells assessed as apoptic cells at 60 uM after 48 hrs by Annexin V based flow cytometric analysis (reference value: 6.29%); type: cell-based, Cricetulus griseus; conditions: chinese hamster, cho-k1, 48 h
CHO-K1 [22] = assay: Induction of apoptosis in CHO-K1 cells assessed as necrotic cells at 65 uM after 48 hrs by Annexin V based flow cytometric analysis (reference value: 0.70%); type: cell-based, Cricetulus griseus; conditions: chinese hamster, cho-k1, 48 h
Quadruplex DNA [23] = assay: Binding affinity to c-Myc G-quadruplex DNA (unknown origin) assessed as hyperchromicity at 8.5 uM incubated for 5 mins by UV- vis spectrophotometric analysis; type: nucleic-acid assay
PC-3 [24] = assay: Induction of apoptosis in human PC-3 cells assessed as viable cells at 50 uM after 48 hrs by Annexin V based flow cytometric analysis (reference value: 89.57%); type: functional; conditions: read-out: Activity
dsDNA [25] = assay: Binding affinity to double strand DNA (unknown origin) assessed as increase in intensity of positive and negative peaks at 10 to 40 uM by circular dichroism spectra; type: nucleic-acid assay; conditions: dose 10-40 µM
dsDNA [26] = assay: Stabilization of dsDNA (unknown origin) assessed as change in melting temperature at 8.5 uM incubated for 5 mins by UV-visible thermal denaturation study; type: nucleic-acid assay
CHO-K1 [27] = assay: Induction of apoptosis in CHO-K1 cells assessed as early apoptic cells at 65 uM after 48 hrs by Annexin V based flow cytometric analysis (reference value: 4.58%); type: cell-based, Cricetulus griseus; conditions: chinese hamster, cho-k1, 48 h
dsDNA [28] = assay: Binding affinity to double strand DNA (unknown origin) assessed as increase in viscosity at 15 uM by EtBr/Hoechst 33342 method; type: nucleic-acid assay
CHO-K1 [29] = assay: Induction of apoptosis in CHO-K1 cells assessed as late apoptic cells at 65 uM after 48 hrs by Annexin V based flow cytometric analysis (reference value: 1.01%); type: cell-based, Cricetulus griseus; conditions: chinese hamster, cho-k1, 48 h
PC-3 [30] = assay: Induction of cell cycle arrest in human PC3 cells assessed as accumulation at Sub G1 phase at 55 uM after 48 hrs by propidium iodide staining based flow cytometry (reference value: 0.1%); type: functional
PC-3 [31] = assay: Induction of cell cycle arrest in human PC3 cells assessed as accumulation at G2/M phase at 50 uM after 48 hrs by propidium iodide staining based flow cytometry (reference value: 1.4%); type: functional
PC-3 [32] = assay: Induction of apoptosis in human PC-3 cells assessed as late apoptic cells at 55 uM after 48 hrs by Annexin V based flow cytometric analysis (reference value: 9.24%); type: functional
PC-3 [33] = assay: Induction of apoptosis in human PC-3 cells assessed as apoptotic cells at 50 uM incubated for 48 hrs by AnnexinV based flow cytometric analysis (reference value: 10.43%); type: functional
CHO-K1 [34] = assay: Induction of apoptosis in CHO-K1 cells assessed as apoptic cells at 65 uM after 48 hrs by Annexin V based flow cytometric analysis (reference value: 6.29%); type: cell-based, Cricetulus griseus; conditions: chinese hamster, cho-k1, 48 h
Quadruplex DNA [35] = assay: Stabilization of Tel Q G-quadruplex DNA (unknown origin) assessed as increase in life time of DNA and compound complex at 8.5 uM incubated for 5 mins by fluorescence lifetime study; type: nucleic-acid assay
dsDNA [36] = assay: Binding affinity to double strand DNA (unknown origin) assessed as dissociation constant incubated for 5 mins by UV- vis spectrophotometric analysis; type: nucleic-acid assay
PC-3 [37] = assay: Induction of cell cycle arrest in human PC3 cells assessed as accumulation at S phase at 55 uM after 48 hrs by propidium iodide staining based flow cytometry (reference value: 1.8%); type: functional

Activity (Quadruplex DNA [1]): Active | Activity (dsDNA [5]): 13.1% | Activity (Quadruplex DNA [9]): Active | Activity (Quadruplex DNA [10]): Active | Activity (Quadruplex DNA [11]): 2.5 nm | Activity (Quadruplex DNA [15]): Active | Kd (Quadruplex DNA [16]): 113 µM | Activity (dsDNA [18]): Active | Kd (Quadruplex DNA [20]): 72.3 µM | Activity (Quadruplex DNA [23]): 27.3% | Activity (dsDNA [25]): inactive | ΔTm (dsDNA [26]): 0 °C | Activity (dsDNA [28]): inactive | Activity (Quadruplex DNA [35]): Active | Kd (dsDNA [36]): 175 µM
SMILES: O=C(Cn1cc(CSc2nc3cc(OC(F)F)ccc3[nH]2)nn1)NC1CCCCC1
IC50 (PC-3 [2]): 53.3 µM | Activity (PC-3 [3]): 2.2% | Activity (PC-3 [4]): 8.9% | Activity (PC-3 [6]): 5.3% | Activity (PC-3 [7]): 0.1% | Activity (PC-3 [8]): 18.2% | Activity (PC-3 [12]): 2.64% | Activity (PC-3 [13]): 0.76% | viability at 48 h, 65 µM [14]: 84.4% | Activity (PC-3 [17]): 11.2% | Activity (CHO-K1 [19]): 1.62% | Activity (CHO-K1 [21]): 13.98% | Activity (CHO-K1 [22]): 1.72% | viability at 50 µM (PC-3 [24]): 87.3% | Activity (CHO-K1 [27]): 11.75% | Activity (CHO-K1 [29]): 2.16% | Activity (PC-3 [30]): 0.8% | Activity (PC-3 [31]): 9.6% | Activity (PC-3 [32]): 13.75% | Activity (PC-3 [33]): 12.72% | Activity (CHO-K1 [34]): 15.63% | Activity (PC-3 [37]): 7.9%
